Measured values published in publication PMC10105947, “Discovery of novel amino acid production traits by evolution of synthetic co-cultures” (Microbial Cell Factories, 2023).

Experiments:
ArgT [1] = target: T1, ArgT (Corynebacterium glutamicum, UniProt Q8NQU2); assay: isothermal titration calorimetry, purified His10-ArgT; assay type: binding
T1 construct: His10-ArgT, variant with cleavable His-tag and lacking the signal peptide

ArgT [2] = target: T1, ArgT; assay: isothermal titration calorimetry, purified His10-ArgT (one measurement); assay type: binding

T1 sequence (Q8NQU2 27-304): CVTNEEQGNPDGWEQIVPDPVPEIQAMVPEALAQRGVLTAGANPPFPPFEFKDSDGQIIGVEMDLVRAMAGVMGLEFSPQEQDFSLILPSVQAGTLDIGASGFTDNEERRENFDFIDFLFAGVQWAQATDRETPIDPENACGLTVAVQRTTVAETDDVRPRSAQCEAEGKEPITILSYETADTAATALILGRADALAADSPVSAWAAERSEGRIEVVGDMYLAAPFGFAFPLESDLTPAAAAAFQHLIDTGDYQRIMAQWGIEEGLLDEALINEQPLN

Kd (ArgT [2]) [nM] | SMILES | Kd (ArgT [1]) [nM]
 | N=C(N)NCCC[C@H](N)C(=O)O [L-arginine] | 29.5 ± 4.8
432 | NC(=O)NCCC[C@H](N)C(=O)O [L-citrulline] | 
